Laboratory results taken from patent publication US20250345383A1, “INTRANASAL ADMINISTRATION OF POLYSULFIDE” (The General Hospital Corporation, priority 2022, published 2025).

How the values were obtained:
[1] = test system: murine primary cortical neurons; assay: Cell viability of murine primary cortical neurons incubated with MPP+ (crystal violet assay); format: cell-based, mouse; details: MPP+ 50 μM, 24 hours
Protocol: (§1) Cell viability assays was performed to examine cell viabilities of SH-SY5Y cells or murine primary cortical neurons 24 h after the addition of MPP^+ (5 mM for SH-SY5Y, 50 μM for primary cortical neurons) with vehicle (PBS), Na2S (Sigma-Aldrich), Na2S3 (Dojindo Molecular Technologies, Inc), GSSSG (Glutathione trisulfide, Kyowa Hakko Bio Co., Ltd., Tokyo, Japan), LA (α-Lipoic acid, Sigma-Aldrich) or LASSS (α-Lipoic acid trisulfide, Kyowa Hakko Bio Co., Ltd., Tokyo, Japan). Cell viability was measured using the crystal violet assay.

primary cortical neurons [2] = assay: Cell viability after oxygen and glucose deprivation/reoxygenation (OGD/R), primary cortical neurons; format: cell-based, mouse
Protocol: Primary cortical neurons were isolated from the cerebral cortices of C57BL/6J mice of both sexes at embryonic day 15, as previously described 39. Primary cortical neurons were maintained at 37° C. in a humidified tissue culture chamber with 5% CO2 and cells were used on day 11 after harvest. […] After reoxygenation, cell viability and cell injury were assessed using crystal violet and lactate dehydrogenase (LDH) assays, as previously described^39.

SH-SY5Y cells = assay: Cell viability of SH-SY5Y cells incubated with MPP+ (crystal violet assay); format: cell-based, human; details: MPP+ 5 mM, 24 h; 10 μM each
Protocol: as §1

primary cortical neurons [3] = assay: Relative sulfane sulfur levels in primary cortical neurons (SSip-1 DA); format: cell-based, mouse; details: incubation at 10 μM for 20 minutes; relative to untreated neurons
Protocol: Primary cortical neurons were isolated from the cerebral cortices of C57BL/6J mice of both sexes at embryonic day 15, as previously described 39. Primary cortical neurons were maintained at 37° C. in a humidified tissue culture chamber with 5% CO2 and cells were used on day 11 after harvest.
Primary cortical neurons or SH-SY5Y cells, a human neuroblastoma cell line (American Type Culture Collection, Manassas, VA, USA), were incubated with SSip-1 DA […] at 37° C. for 20 minutes in the dark. Cells were washed with pre-warmed HBSS containing calcium and magnesium (Thermo Fisher Scientific, Waltham, MA, USA) and then cells were incubated with GSSSG, sodium trisulfide (Na2S3; Dojindo Molecular Technologies, Inc., Rockville, MD, USA), PTN-SSS, or vehicle alone for 20 minutes at 37° C. in the dark. Fluorescence intensities were measured using a microplate reader.

mice subjected to SCI = assay: Mouse model of spinal cord ischemia (SCI): delayed paraplegia, hindlimb motor function by Basso mouse scale (BMS); format: in vivo
Source text: Adult C57BL/6J mice (12-18 weeks old) of both sexes were purchased from Jackson Laboratory (Bar Harbor, ME, USA). Both male and female mice were used in experiments to investigate the neuroprotective effect of GSSSG on motor function after SCI. […] All mice were housed in a temperature and humidity-controlled room in the animal center with a 12-hour light/dark cycle, and were provided with food and water ab libitum. To permit access by mice that were recovering from surgery, additional food pellets were inserted into hydrated gel placed on the bedding. A randomized paired design was used to minimize the variability between each treatment group. Mice were paired based on weight, age, delivery dates, and when possible, holding cages. After the pairing, mice were randomly assigned to different treatments.
The surgical procedures to produce delayed paraplegia in mice were performed as previously described^6 (FIG. 2A). Mice were anesthetized with 5% isoflurane in 100% O2 and tracheally intubated with a 20-gauge catheter (Angiocath; Becton Dickinson, Franklin Lakes, NJ, USA). […] The paravertebral muscle temperature was measured using a T-type implantable thermocouple probe (IT-18) and a T-type pod (ADInstruments, Colorado Springs, CO, USA). […] A median sternotomy extended from the apex of the manubrium to the second rib. The aortic arch was gently isolated between the left common carotid artery (LCCA) and the left subclavian artery (LSA), avoiding the vagus nerve and the left recurrent laryngeal nerve. […] After ischemia, the clips were removed in reverse order. Incisions were closed in layers and mechanical ventilation was discontinued. After stable spontaneous respiration was confirmed, mice were extubated.
The previously described surgical procedures^6 were modified as follows. The respiratory rate during the procedure was increased to 230 breaths/minute, because hyperventilation promotes the occurrence of delayed paraplegia caused by spinal cord ischemia^33. A laser Doppler perfusion monitor (moorVMS-LDF1; Moor Instruments, Millwey, UK) was used to monitor the femoral artery blood flow^28,29. […] To improve the accuracy of surgical procedures, a microscope (Leica MZ95; Leica Microsystems, Buffalo Grove, IL, USA) was used to isolate the aortic arch and place the clips.
Study drugs were administered intranasally using a single-channel pipettor. Mice were anesthetized with 3% isoflurane using a non-rebreathing circuit with a mouse nose cone (VetEquip, Inc., Livermore, CA, USA). While the drugs were administered, the nose cone was removed and mice were allowed to breathe air. Approximately 6 μL of each drug was administered into the mouse's nostrils and the mouse inhaled the droplets during inspiration. […]

[4] = test system: ventral horn of lumbar spinal cord; assay: Histology of lumbar spinal cord 48 hours after SCI (Nissl, Iba-1, cleaved caspase-3); format: in vivo, mouse
Protocol: The lumbar enlargement of the spinal cord was removed 48 hours after surgery and sectioned to […] thickness using a cryotome (CM1850UV; Leica Biosystems, Heidelberger, Germany). Nissl staining was conducted using the Nissl stain kit (VitroVivo Biotech, Rockville, MD, USA) according to the protocol recommended by the manufacturer. Immunohistochemical staining for ionized calcium-binding adaptor molecule 1 (Iba-1) and cleaved caspase-3 was performed as previously described^6,15. The stained sections were examined using an epifluorescence microscope (Nikon Eclipse 80i; Nikon Instruments, Inc., Melville, NY, USA).
The number of stained cells was counted in one field (0.26 mm^2) under high magnification (200×) in 3 different sections of spinal cord from each mouse by an investigator who was blinded to the identity of the samples. The average number of stained cells was calculated for each mouse. For quantitative analysis of Iba-1 staining, the Iba-1-positive area per one field (0.26 mm^2) under high magnification (200×) in 3 different ventral horn sections for each mouse was calculated using the ImageJ image-processing program (National Institutes of Health, Bethesda, MD, USA). The mean area of Iba-1 staining in the spinal cords of mice in the sham procedure group was set to 1 and the relative amount of Iba-1 staining was determined for each experimental group of mice. Each group included 5 mice.

MPTP-treated mice = assay: MPTP-induced Parkinson's disease model in mice (tyrosine hydroxylase immunoblot); format: in vivo, mouse; details: GSSSG 50 mg/kg intranasal on day 0 and every 12 hours days 1-6; harvested 7 days after MPTP
Protocol: Intermittent H2S Inhalation—Sulfide Pre-Conditioning (SPC) We previously reported that breathing H2S at 80 ppm markedly increases plasma and brain levels of H2S and thiosulfate, an oxidative product of H2S.^50,51 Male C57BL6/J mice breathed air alone and air mixed with 80 ppm H2S (Airgas Inc., Radnor, PA) for 4 h each day for 5 consecutive days in custom-made plastic chambers. The H2S breathing session was performed from 8 AM until 12 PM from Day 1 through Day 5 as previously described^51 (FIG. 1). H2S concentration, as well as FiO2, was continuously measured using a portable gas monitor (VENTIS MX4 Multi-Gas Monitor, Industrial Scientific Corporation, Oakdale. PA).
Male C57BL6/J and CD-1 mice received four intraperitoneal injections of MPTP (20 mg/kg) or saline every 2 h for a total of four doses of MPTP (total, 80 mg/kg) or equivalent amount of saline, as previously described 3. […] Then, tyrosine hydroxylase protein levels were detected by immunoblotting.
To determine the effects of polysulfide on the loss of tyrosine hydroxylase in the substantia nigra and striatum in mice treated with MPTP, we administered GSSSG (50 mg/kg) or saline via intranasal route immediately after the first and the third injection of MPTP on Day 0. […] Then, tyrosine hydroxylase protein levels were detected by immunoblotting.

N[C@@H](CCC(=O)N[C@@H](CSSSC[C@H](NC(=O)CC[C@H](N)C(=O)O)C(=O)NCC(=O)O)C(=O)NCC(=O)O)C(=O)O [GSSSG, glutathione trisulfide] was tested, and the “protection of murine primary cortical neurons from the effects of MPP+ treatment” value [1] was “protected”, the “cell survival after OGD/R” value (primary cortical neurons [2]; GSSSG 100 μM) was “failed to improve cell survival” and the “release of LDH after OGD/R” value (primary cortical neurons [2]; GSSSG at 30 μM or 60 μM, vs vehicle-only treated cells) was “decreased release of LDH”. For the same molecule, the “cell viability after OGD/R, crystal violet assay (GSSSG, GSH, GSSG comparison)” value (primary cortical neurons [2]; GSSSG at 30 μM, GSH at 60 μM, GSSG at 30 μM, vs vehicle-only treated cells) was “improved cell viability”, the “cell viability after OGD/R, crystal violet assay” value (primary cortical neurons [2]; GSSSG at 30 μM, vs vehicle-only treated cells) was “increased cell viability” and the “viability of MPP+-treated SH-SY5Y cells” value (SH-SY5Y cells) was “increased the viability”. The “levels of intracellular sulfane sulfur in primary cortical neurons” value (primary cortical neurons [3]) was “increased levels of intracellular sulfane sulfur”, the “male mice rescued from delayed paraplegia” value (mice subjected to SCI; GSSSG vs GSSG comparison, n=6 per group, intranasal GSSSG 50 mg/kg, GSSG 53 mg/kg) was 83% and the “mice in which development of delayed paraplegia was prevented” value (mice subjected to SCI; male mice, n=11 per group, intranasal at 0, 8, 23, 32 hours after surgery, GSSSG 50 mg/kg, GSH 45.2 mg/kg) was 73%. For the same molecule, the “number of cleaved caspase-3-positive neurons in lumbar spinal cord” value ([4]; intranasal GSSSG) was “prevented the SCI-induced increase”, the “number of viable neurons (Nissl stain) in ventral horns of lumbar spinal cord” value ([4]; intranasal GSSSG at 0, 8, 23, 32 hours, vs vehicle alone) was “significant increase in the number of viable neurons” and the “Iba-1-positive staining (microglial activation) in lumbar spinal cord” value ([4]; intranasal GSSSG, vs vehicle alone) was “significant reduction in staining for Iba-1”. The “tyrosine hydroxylase in the nigrostriatal region” value (MPTP-treated mice) was “prevented the MPTP-induced decrease in tyrosine hydroxylase”.
